Assays:
SUM149 = experiment: Cytotoxicity in vitro in the presence and absence of elastase (MTT assay); format: cell-based; settings: SUM149 cells, 72 h
Description: (§1) Cultivation of cells was performed according to standard procedures with the media recommended by the provider. The cells, in a total volume of 100 μL, were seeded in a 96-well plate with a white bottom (#3610). After a 24 h incubation period at 37° C. and 5% CO2, the medium was exchanged by adding 90 μL fresh medium. The treatment started by adding the test compound in 10 μL of culture medium to the cells in triplicates. Concentrations ranging from 10^−5 M to 10^−13 M were chosen. Two identically treated sets of samples were prepared. One set was treated with the test compound alone, whereas to the second set the compound and 10 nM elastase was added followed by a 72 h incubation period at 37° C. and 5% CO2. The proliferation was detected using the MTT assay (ATCC). At the end of the incubation period the MTT reagent was added to all samples for 4h. Lysis of the cells followed by addition of the detergent was done overnight. The formed dye was detected at 570 nm. The proliferation of untreated but otherwise identically handled cells was define as the […].

[1] = Compound stability in rat plasma; format: in vitro ADME; settings: rat plasma at 37° C., 4-hour assay; for ester cleavage in rat plasma: detected by LC-MS
Description: (§2) Compound B1, Compound C2, and Compound C3 were evaluated for stability in plasma and/or buffer. Compound B1 was stable in rat plasma at 37° C. (FIG. 1 panel (a)) and in buffer at pH 7.4 (FIG. 1 panel (b)) for the duration of the 4-hour assay.
Method for measurement of stability in rat and human plasma: 1 mg of the test compound is dissolved in 0.5 ml acetonitrile/dimethylsulfoxide 1:1. For complete dissolution the HPLC vial is shaken and sonicated. While vortexing 20 μl of this solution are added to 1 ml 37° C. warm plasma. After 0.17, 0.5, 1, 1.5, 2 and 4 hours the enzymatic reaction is stopped by adding 100 μl of the compound plasma solution to a vial containing 300 μl acetonitrile/buffer pH3 (80:20) at RT. The mixture is centrifuged at 5000 rpm for 10 minutes. The supernatant is analyzed by HPLC to determine the amount of the test compound and up to two byproducts. To values result from a processed sample immediately taken after vortexing with plasma at RT. The peak areas (in percentage) are used for quantification. All data is given as percent area of the initial compound at to.

[2] = Compound stability in buffer; format: physicochemical; settings: for release of free payload in buffer: buffer at pH 4, within 24 hours
Description: as §2
Method for measurement of stability in buffer: 0.15 mg of the test compound are solved in 0.1 ml dimethylsulfoxide and 0.4 ml acetonitrile. For complete dissolution the HPLC vial with the sample solution is shaken and sonicated. Then 1.0 ml of the respective buffer solution is added, and the sample is vortexed. The sample solution is analysed by HPLC to determine the amount of the test compound and up to two byproducts at a particular time over a period of 24 h at 37° C. to values result from a sample immediately taken after vortexing with buffer at RT. The peak areas (in percentage) are used for quantification.

HT29 = experiment: Cytotoxicity in vitro in the presence and absence of elastase (MTT assay); format: cell-based, human; settings: HT29 cells, 72 h
Description: as §1

786-O = experiment: as above; format: cell-based, human; settings: 786-O cells, 72 h
Description: as §1

NCI H292 = experiment: as above; format: cell-based, human; settings: NCI H292 cells, 72 h
Description: as §1

avb3 = experiment: EC50 [nM]
Excerpt: Table printed on a drawing sheet, FIG. 4
Head of the field: EC50 [nM]
The patent's description of the figure: FIG. 4: avb3 binding of selected examples and EC50 values
First copying reader's note: EC50 values relate to the αvβ3 binding assay plotted next to the table; R^2 is the goodness of fit of the curve.
Where the first naming reader finds the target: description_of_the_figure: FIG. 4: avb3 binding of selected examples and EC50 values

Row | Structure (SMILES) | IC50 (SUM149; compound alone (no elastase)) | IC50 (SUM149; with 10 nM elastase) | stability in rat plasma [1] | stability in buffer at pH 7.4 ([2]; buffer pH 7.4, 4-hour assay) | IC50 (HT29; compound alone (no elastase)) | IC50 (HT29; with 10 nM elastase) | IC50 (786-O; compound alone (no elastase)) | IC50 (786-O; with 10 nM elastase) | IC50 (NCI H292; compound alone (no elastase)) | IC50 (NCI H292; with 10 nM elastase) | EC50 (avb3) | ester cleavage in rat plasma [1] | release of free payload in buffer [2]
1 | CCCNC(=O)Nc1cccc(S(=O)(=O)Nc2cccc([C@@H](CC(=O)O)NC(=O)Nc3ccc(NC(=O)N(C)CCN(C)CCN(C)CC(=O)N[C@@H](CC(N)=O)C(=O)N4CCC[C@H]4C(=O)N[C@H](C(=O)O[C@]4(CC)C(=O)OCc5c4cc4n(c5=O)Cc5c-4nc4ccccc4c5CC)C(C)C)cc3)c2)c1 [Compound B1, (4S)-4,11-diethyl-3,14-dioxo-3,4,12,14-tetrahydro-1H-pyrano[3′,4′:6,7]indolizino[1,2-b]quinolin-4-yl N-{2-[{2-[({4-[({(1R)-2-carboxy-1-[3-({3-[(propylcarbamoyl)amino]benzene-1-sulfonyl}amino)phenyl]ethyl}carbamoyl)amino]phenyl}carbamoyl)(methyl)amino]ethyl} (methyl)amino]ethyl}-N-methylglycyl-L-asparaginyl-L-prolyl-L-valinate] | 10 to 100 nM | 0.01 to 0.1 nM | stable | stable | > 100 nM | 0.1 to 1 nM | 10 to 100 nM | 0.1 to 1 nM | 10 to 100 nM | 0.1 to 1 nM |  |  | 
2 | CCCNC(=O)Nc1cccc(S(=O)(=O)Nc2cccc([C@@H](CC(=O)O)NC(=O)Nc3ccc(NC(=O)NCCC(=O)NCCCC[C@H](NC(=O)CCNC(=O)Nc4ccc(NC(=O)N[C@H](CC(=O)O)c5cccc(NS(=O)(=O)c6cccc(NC(=O)NCCC)c6)c5)cc4)C(=O)NCCOCCOCCOCCC(=O)N[C@@H](CC(=O)O)C(=O)N4CCC[C@H]4C(=O)N[C@H](C(=O)O[C@]4(CC)C(=O)OCc5c4cc4n(c5=O)Cc5c-4nc4ccccc4c5CC)C(C)C)cc3)c2)c1 [Compound A2] | 10 to 100 nM | 0.01 to 0.1 nM |  |  | > 100 nM | 0.01 to 0.1 nM | 10 to 100 nM | 0.01 to 0.1 nM | 10 to 100 nM | 0.01 to 0.1 nM | 97 nM |  | 
3 | CCCNC(=O)Nc1cccc(S(=O)(=O)Nc2cccc([C@@H](CC(=O)O)NC(=O)Nc3ccc(NC(=O)NCCOCCOCCOCCC(=O)N[C@@H](CC(=O)OCCCCN(C)C)C(=O)N4CCC[C@H]4C(=O)N[C@H](C(=O)O[C@]4(CC)C(=O)OCc5c4cc4n(c5=O)Cc5c-4nc4ccccc4c5CC)C(C)C)cc3)c2)c1 [Compound C3, (3R)-3-[({4-[({(10S)-10-[(2S)-2-{[(2S)-1-{[(4S)-4,11-Diethyl-3,14-dioxo-3,4,12,14-tetrahydro-1H-pyrano[3′,4′:6,7]indolizino[1,2-b]quinolin-4-yl]oxy}-3-methyl-1-oxobutan-2-yl]carbamoyl}pyrrolidine-1-carbonyl]-2-methyl-8,12-dioxo-7,15,18,21-tetraoxa-2,11-diazatricosan-23-yl}carbamoyl)amino]phenyl}carbamoyl)amino]-3-[3-({3-[(propylcarbamoyl)amino]benzene-1-sulfonyl}amino)phenyl]propanoic acid] | 1.1 to 10 nM | 0.01 to 0.1 nM |  |  | 10 to 100 nM | 0.1 to 1 nM | 10 to 100 nM | 0.1 to 1 nM | 10 to 100 nM | 0.1 to 1 nM |  | slow ester cleavage and release of the aspartate moiety | No release of free payload is detected
4 | CCCNC(=O)Nc1cccc(S(=O)(=O)Nc2cccc([C@@H](CC(=O)O)NC(=O)Nc3ccc(NC(=O)NCCOCCOCCOCCC(=O)N[C@@H](CC(=O)OCCCN(C)C)C(=O)N4CCC[C@H]4C(=O)N[C@H](C(=O)O[C@]4(CC)C(=O)OCc5c4cc4n(c5=O)Cc5c-4nc4ccccc4c5CC)C(C)C)cc3)c2)c1 [Compound C2, (3R)-3-[({4-[({(9S)-9-[(2S)-2-{[(2S)-1-{[(4S)-4,11-diethyl-3,14-dioxo-3,4,12,14-tetrahydro-1H-pyrano[3′,4′:6,7]indolizino[1,2-b]quinolin-4-yl]oxy}-3-methyl-1-oxobutan-2-yl]carbamoyl}pyrrolidine-1-carbonyl]-2-methyl-7,11-dioxo-6,14,17,20-tetraoxa-2,10-diazadocosan-22-yl}carbamoyl)amino]phenyl}carbamoyl)amino]-3-[3-({3-[(propylcarbamoyl)amino]benzene-1-sulfonyl}amino)phenyl]propanoic acid] | 0.1 to 1 nM | 0.01 to 0.1 nM |  |  | 1.1 to 10 nM | 0.1 to 1 nM | 10 to 100 nM | 0.1 to 1 nM | 10 to 100 nM | 0.1 to 1 nM |  | slow ester cleavage and release of the aspartate moiety | No release of free payload is detected
5 | CCCNC(=O)Nc1cccc(S(=O)(=O)Nc2cccc(C(CC(=O)O)NC(=O)Nc3ccc(NC(=O)NCCOCCOCCOCCC(=O)NCCCCC(NC(=O)CCOCCOCCOCCNC(=O)Nc4ccc(NC(=O)NC(CC(=O)O)c5cccc(NS(=O)(=O)c6cccc(NC(=O)NCCC)c6)c5)cc4)C(=O)NCCOCCOCCOCCC(=O)NC(CC(=O)O)C(=O)N4CCCC4C(=O)NC(C(=O)OC4(CC)C(=O)OCc5c4cc4n(c5=O)Cc5c-4nc4ccccc4c5CC)C(C)C)cc3)c2)c1 (stereo not shown) [Compound A3] |  |  |  |  |  |  |  |  |  |  | 55 nM |  | 

— US20240423973A1, “COMPOUNDS, PHARMACEUTICAL COMPOSITIONS, AND METHODS FOR THE TREATMENT, PREVENTION, OR MANAGEMENT OF HYPERPROLIFERATIVE DISORDERS” (VINCERX PHARMA GMBH, priority 2021, published 2024)
